Measurements: patent US9416123B2, “Kinase modulators for the treatment of cancer” (Synovo GmbH, priority 2011, dated 2016)

Legend:
Src = Src (Homo sapiens (Human), UniProt P12931); experiment: Kinase assay (33P FlashPlate) Src; conditions: read-out: IC50 Src (n = 1); Table 1, n = 1
Description: (§1) FlashPlates from Perkin Elmer (Boston, Mass., USA) with a 50 μl reaction volume are used. The reaction cocktail was pipetted in 4 steps in the following order: 15 μl of ATP solution (in H2O), 20 μl of assay buffer (see below), 5 μl of test sample in 10% DMSO, 10 μl of enzyme/substrate mixture (in H2O). […] Certain assays also contained 1 mM CaCl2, 4 mM EDTA, 5 μg/ml Phosphatidylserine and 1 μg/ml 1.2-Dioleyl-glycerol. The MYLK2, CAMK1D, CAMK2A, CAMK2B, CAMK2D, CAMK4, CAMKK2, DAPK2 and EEF2K assays additionally contained 1 μg/ml Calmodulin and 0.5 mM CaCl2. The PRKG1 and PRKG2 assays additionally contained 1 μM cGMP. Recombinant Protein Kinases: All protein kinases were expressed in Sf9 insect cells or in E. coli as recombinant GST-fusion proteins or His-tagged proteins. All kinases were produced from human cDNAs, except JAK2, for which the mouse cDNA was used. […] The purity of the protein kinases was examined by SDS-PAGE/coomassie staining. The identity of the protein kinases was checked by mass spectroscopy. Assays were made under license from Chemicon International Inc. for JAK2. […] The reaction was stopped with 50 μl of 2% (v/v) H3PO4, plates were aspirated and washed two times with 200 μl 0.9% (w/v) NaCl. All assays were performed with a BeckmanCoulter Biomek 2000/SL robotic system.

B-Raf V600E = B-Raf V600E (Homo sapiens (Human), UniProt P15056, V600E); experiment: Kinase assay (33P FlashPlate) B-Raf V600E; conditions: read-out: IC50 B-Raf V600E (n = 1); Table 1, n = 1
Description: as §1

VEGFR-2 = VEGFR-2 (Homo sapiens (Human), UniProt P35968); experiment: Kinase assay (33P FlashPlate) VEGFR-2; conditions: read-out: IC50 VEGFR-2 (n = 1); Table 1, n = 1
Chain of VEGFR-2 (P35968 20-1356): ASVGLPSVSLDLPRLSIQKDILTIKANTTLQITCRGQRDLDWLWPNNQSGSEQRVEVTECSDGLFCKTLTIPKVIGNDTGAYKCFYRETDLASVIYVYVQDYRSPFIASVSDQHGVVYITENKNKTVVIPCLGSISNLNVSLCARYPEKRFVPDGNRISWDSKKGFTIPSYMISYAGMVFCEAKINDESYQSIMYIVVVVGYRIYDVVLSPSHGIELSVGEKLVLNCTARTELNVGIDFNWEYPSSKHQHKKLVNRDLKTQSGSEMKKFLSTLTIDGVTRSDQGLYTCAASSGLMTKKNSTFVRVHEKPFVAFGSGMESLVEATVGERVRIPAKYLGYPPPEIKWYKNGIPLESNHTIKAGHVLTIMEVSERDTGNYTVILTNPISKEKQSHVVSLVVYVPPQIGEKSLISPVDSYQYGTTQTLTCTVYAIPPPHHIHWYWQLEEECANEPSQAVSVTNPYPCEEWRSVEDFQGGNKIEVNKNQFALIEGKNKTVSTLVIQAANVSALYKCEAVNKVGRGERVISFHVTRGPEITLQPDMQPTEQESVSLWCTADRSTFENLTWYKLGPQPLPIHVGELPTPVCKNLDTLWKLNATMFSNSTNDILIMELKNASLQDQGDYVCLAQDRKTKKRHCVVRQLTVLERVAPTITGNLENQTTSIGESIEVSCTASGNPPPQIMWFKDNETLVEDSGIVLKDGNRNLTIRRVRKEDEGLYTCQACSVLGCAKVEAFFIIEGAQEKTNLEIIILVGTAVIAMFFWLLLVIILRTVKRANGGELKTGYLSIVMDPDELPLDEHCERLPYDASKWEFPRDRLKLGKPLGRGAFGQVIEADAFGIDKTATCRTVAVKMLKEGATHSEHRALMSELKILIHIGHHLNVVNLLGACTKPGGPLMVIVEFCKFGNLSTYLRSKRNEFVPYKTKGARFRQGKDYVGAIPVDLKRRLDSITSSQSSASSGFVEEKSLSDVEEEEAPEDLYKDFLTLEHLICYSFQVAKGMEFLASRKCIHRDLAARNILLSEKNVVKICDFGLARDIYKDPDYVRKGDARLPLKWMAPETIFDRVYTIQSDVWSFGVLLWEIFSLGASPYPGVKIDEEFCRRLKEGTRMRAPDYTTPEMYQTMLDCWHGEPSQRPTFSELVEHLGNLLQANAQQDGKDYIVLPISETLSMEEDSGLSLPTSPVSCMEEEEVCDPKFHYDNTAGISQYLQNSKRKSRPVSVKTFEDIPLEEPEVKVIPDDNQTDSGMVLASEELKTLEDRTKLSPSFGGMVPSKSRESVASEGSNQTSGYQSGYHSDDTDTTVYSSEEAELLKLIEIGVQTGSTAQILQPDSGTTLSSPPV
Description: as §1

RIPK2 = RIPK2 (Homo sapiens (Human), UniProt O43353); experiment: Kinase assay (33P FlashPlate) RIPK2; format: biochemical; conditions: Table 3
Chain of RIPK2 (O43353 whole entry): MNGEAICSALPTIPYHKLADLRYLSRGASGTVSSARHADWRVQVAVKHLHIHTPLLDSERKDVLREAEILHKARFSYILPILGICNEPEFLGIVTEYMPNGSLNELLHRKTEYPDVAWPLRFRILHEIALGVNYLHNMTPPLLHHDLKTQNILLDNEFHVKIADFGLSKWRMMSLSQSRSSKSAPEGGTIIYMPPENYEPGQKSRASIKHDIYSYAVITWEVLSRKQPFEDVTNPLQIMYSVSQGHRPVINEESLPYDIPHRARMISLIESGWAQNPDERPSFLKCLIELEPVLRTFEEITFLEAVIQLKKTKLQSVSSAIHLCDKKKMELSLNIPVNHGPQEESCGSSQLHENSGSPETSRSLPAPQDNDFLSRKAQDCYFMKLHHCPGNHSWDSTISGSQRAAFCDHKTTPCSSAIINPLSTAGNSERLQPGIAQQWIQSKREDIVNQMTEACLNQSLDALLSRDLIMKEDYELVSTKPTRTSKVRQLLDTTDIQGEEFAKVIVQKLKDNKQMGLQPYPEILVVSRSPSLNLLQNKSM

Chain of B-Raf V600E (P15056 whole entry V600E): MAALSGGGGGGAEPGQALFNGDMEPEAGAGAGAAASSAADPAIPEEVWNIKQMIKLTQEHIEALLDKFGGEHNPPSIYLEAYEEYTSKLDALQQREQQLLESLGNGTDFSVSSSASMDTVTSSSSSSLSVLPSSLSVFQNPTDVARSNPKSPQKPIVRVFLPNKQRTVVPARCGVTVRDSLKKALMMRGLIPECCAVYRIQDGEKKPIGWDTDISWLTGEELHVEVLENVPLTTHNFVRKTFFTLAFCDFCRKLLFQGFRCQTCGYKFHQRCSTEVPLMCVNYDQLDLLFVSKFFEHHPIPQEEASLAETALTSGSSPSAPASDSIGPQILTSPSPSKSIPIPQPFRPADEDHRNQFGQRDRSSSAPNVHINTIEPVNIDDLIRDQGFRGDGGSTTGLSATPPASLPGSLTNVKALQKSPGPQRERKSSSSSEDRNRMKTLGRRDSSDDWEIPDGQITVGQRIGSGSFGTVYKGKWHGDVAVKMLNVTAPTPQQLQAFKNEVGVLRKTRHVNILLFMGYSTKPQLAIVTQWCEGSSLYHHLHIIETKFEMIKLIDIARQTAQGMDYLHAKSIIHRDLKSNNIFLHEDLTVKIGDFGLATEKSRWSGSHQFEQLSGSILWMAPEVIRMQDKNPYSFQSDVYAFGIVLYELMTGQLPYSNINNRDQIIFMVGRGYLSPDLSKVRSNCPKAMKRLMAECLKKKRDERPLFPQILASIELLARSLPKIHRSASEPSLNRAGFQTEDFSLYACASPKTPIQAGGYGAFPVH
Chain of Src (P12931 whole entry, looked up): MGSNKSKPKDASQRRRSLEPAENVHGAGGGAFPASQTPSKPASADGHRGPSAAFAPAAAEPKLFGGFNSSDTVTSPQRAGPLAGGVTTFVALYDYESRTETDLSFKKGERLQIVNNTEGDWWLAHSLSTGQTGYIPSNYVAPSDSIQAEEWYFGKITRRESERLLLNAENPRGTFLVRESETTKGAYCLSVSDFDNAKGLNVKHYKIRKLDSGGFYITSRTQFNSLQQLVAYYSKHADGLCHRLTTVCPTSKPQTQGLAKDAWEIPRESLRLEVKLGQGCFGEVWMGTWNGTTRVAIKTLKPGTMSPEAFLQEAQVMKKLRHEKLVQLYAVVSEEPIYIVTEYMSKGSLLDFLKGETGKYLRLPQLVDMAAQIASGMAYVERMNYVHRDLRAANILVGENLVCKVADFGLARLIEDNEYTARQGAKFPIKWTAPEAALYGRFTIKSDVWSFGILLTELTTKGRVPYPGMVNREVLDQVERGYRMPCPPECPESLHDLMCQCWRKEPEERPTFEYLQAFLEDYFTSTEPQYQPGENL

SMILES	IC50 (Src) [µM]	IC50 (B-Raf V600E) [nM]	IC50 (VEGFR-2) [µM]	melting point [°C]	IC50 (RIPK2) [nM]
Nc1cc(-c2ccncc2)nn1-c1c(Cl)cc(Cl)cc1Cl [Compound 19, 3-(Pyridin-4-yl)-1-(2,4,6-trichlorophenyl)-1H-pyrazol-5-amine]	> 100	> 100000	87	–	–
CCOC(=O)c1c(-c2ccncc2)nn(-c2c(Cl)cc(Cl)cc2Cl)c1N [Compound 15, Ethyl 5-amino-3-(pyridin-4-yl)-1-(2,4,6-trichlorophenyl)-1H-pyrazole-4-carboxylate]	> 100	> 100000	> 100	–	–
Nc1c(C(=O)O)c(-c2ccncc2)nn1-c1c(Cl)cc(Cl)cc1Cl [Compound 16, 5-Amino-3-(pyridine-4-yl)-1-(2,4,6-trichlorophenyl)-1H-pyrazole-4-carboxylic acid]	55	> 100000	43	208	–
COc1ccc(-n2nc(-c3ccncc3)c(-c3ccc(F)cc3)c2N)cc1 [Compound 8]	23	860	1.9	200	–
Nc1c(-c2ccc(F)cc2)c(-c2ccncc2)nn1-c1c(Cl)cc(Cl)cc1Cl [Compound 6]	–	–	–	–	41
Nc1c(-c2ccc(F)cc2)c(-c2ccncc2)nn1-c1ccccc1 [Compound 5, 4-(4-Fluorophenyl)-1-phenyl-3-(pyridine-4-yl)-1H-pyrazol-5-amine]	52	900	2.4	–	–
N#Cc1ccc(-n2nc(-c3ccncc3)c(-c3ccc(F)cc3)c2N)cc1 [Compound 11, 4-(5-Amino-4-(4-fluorophenyl)-3-(pyridine-4-yl)-1H-pyrazol-1-yl)benzonitrile]	> 100	1700	1.3	–	–

Results, then the molecule that gave them:

IC50 (Src) [µM]	IC50 (B-Raf V600E) [nM]	IC50 (VEGFR-2) [µM]	melting point [°C]	IC50 (RIPK2) [nM]	SMILES
2	2500	0.21	–	–	Clc1cc(Cl)c(N/N=C/c2ccncc2)c(Cl)c1 [Compound 3a]
6.4	> 100000	31	–	–	NC(=O)c1c(-c2ccncc2)nn(-c2c(Cl)cc(Cl)cc2Cl)c1N [Compound 14, 5-Amino-3-(pyridin-4-yl)-1-(2,4,6-trichlorophenyl)-1H-pyrazole-4-carboxamide]
12	2700	27	–	–	Fc1ccc(-c2cn(-c3ccc(C(F)(F)F)cc3)nc2-c2ccncc2)cc1 [Compound 20]
19	64000	48	–	–	NC(=O)c1c(-c2ccncc2)nn(-c2ccccc2)c1N [Compound 18, 5-Amino-1-phenyl-3-(pyridine-4-yl)-1H-pyrazole-4-carboxamide]
